How the values were obtained:
[1] = target: Delta-type opioid receptor (Homo sapiens) (UniProt P41143); details: Cavia porcellus; Ileum; 20 nM
Description: Antagonistic activity at Opioid receptor delta 1 in electrically stimulated Guinea pig ileum using DADLE as the agonist at 20 nM

[2] = target: Mu-type opioid receptor (Cavia porcellus) (UniProt P97266); details: Ileum, 100 nM
Description: Antagonistic activity at Opioid receptor mu 1 in electrically stimulated Guinea pig ileum using morphine as the agonist at 100 nM

[3] = target: Kappa-type opioid receptor (Cavia porcellus) (UniProt P41144); details: Ileum, 20 nM
Description: Antagonistic activity at Opioid receptor kappa 1 in electrically stimulated Guinea pig ileum using ethylketazocine as the agonist at 20 nM concentration

[4] = target: Mu-type opioid receptor (Cavia porcellus) (UniProt P97266); details: Ileum, 20 nM
Description: Antagonistic activity at Opioid receptor mu 1 in electrically stimulated Guinea pig ileum using morphine as the agonist at 20 nM concentration

[5] = target: Delta-type opioid receptor (Homo sapiens) (UniProt P41143); details: Cavia porcellus; Ileum; 20 nM; remark: listed apart in the source
Description: Antagonistic activity at Opioid receptor delta 1 in electrically stimulated Guinea pig ileum using DADLE as the agonist at 20 nM concentration

Delta-type opioid receptor (Homo sapiens), sequence (P41143 whole entry): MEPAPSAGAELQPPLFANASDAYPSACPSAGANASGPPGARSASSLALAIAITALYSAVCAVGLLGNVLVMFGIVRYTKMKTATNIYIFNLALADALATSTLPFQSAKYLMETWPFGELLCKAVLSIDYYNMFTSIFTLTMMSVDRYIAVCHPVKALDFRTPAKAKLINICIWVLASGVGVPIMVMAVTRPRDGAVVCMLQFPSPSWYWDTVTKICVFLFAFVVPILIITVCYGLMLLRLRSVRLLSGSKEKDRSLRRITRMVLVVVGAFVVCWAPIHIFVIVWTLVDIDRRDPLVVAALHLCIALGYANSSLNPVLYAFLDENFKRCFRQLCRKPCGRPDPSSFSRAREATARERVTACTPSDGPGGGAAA
Mu-type opioid receptor (Cavia porcellus), sequence (P97266 whole entry): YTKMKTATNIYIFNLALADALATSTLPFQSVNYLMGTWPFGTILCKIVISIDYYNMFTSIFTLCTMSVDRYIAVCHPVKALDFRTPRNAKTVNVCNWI
Kappa-type opioid receptor (Cavia porcellus), sequence (P41144 whole entry): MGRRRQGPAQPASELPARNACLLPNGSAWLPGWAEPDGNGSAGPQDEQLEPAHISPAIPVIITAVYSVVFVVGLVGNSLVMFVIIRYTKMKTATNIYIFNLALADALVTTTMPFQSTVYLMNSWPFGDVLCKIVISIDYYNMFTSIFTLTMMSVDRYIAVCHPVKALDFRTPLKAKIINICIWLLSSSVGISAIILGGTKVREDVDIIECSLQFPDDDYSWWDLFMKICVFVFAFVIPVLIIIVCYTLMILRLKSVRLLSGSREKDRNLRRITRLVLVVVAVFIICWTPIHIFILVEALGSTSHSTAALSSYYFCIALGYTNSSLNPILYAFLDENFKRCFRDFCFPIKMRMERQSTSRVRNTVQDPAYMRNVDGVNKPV

SMILES: Oc1ccc2c3c1O[C@H]1c4[nH]c5c(c4C[C@@]4(O)[C@@H](C2)N(CC2CC2)CC[C@]314)C[C@@]1(O)[C@H]2Cc3ccc(O)c4c3[C@@]1(CCN2CC1CC1)[C@H]5O4
- Ke [1]: 10 nM

SMILES: Oc1ccc2c3c1O[C@@H]1c4[nH]c5c(c4C[C@]4(O)[C@H](C2)N(CC2CC2)CC[C@@]314)C[C@]1(O)[C@@H]2Cc3ccc(O)c4c3[C@]1(CCN2CC1CC1)[C@@H]5O4
- Ke [2]: 77 nM

SMILES: Oc1ccc2c3c1O[C@H]1c4[nH]c5c(c4C[C@@]4(O)[C@@H](C2)N(CC2CC2)CC[C@]314)C[C@]1(O)[C@@H]2Cc3ccc(O)c4c3[C@]1(CCN2CC1CC1)[C@@H]5O4
- Ke [3]: 0.08 nM
- Ke [4]: 1.1 nM
- Ke [5]: 1.3 nM

— ChEMBL document CHEMBL1124272, “Only one pharmacophore is required for the kappa opioid antagonist selectivity of norbinaltorphimine” (J Med Chem, 1988)
